Values of other authors, collected in EP1782809A1, “Use of ligands of PPARGamma for inducing foetal lung maturity and the prevention of the respiratory-distress syndrome in premature infants” (Charité-Universitätsmedizin Berlin, priority 2005, dated 2007).
Where two headings read alike, the source gives them in different places.

What was measured:
[1] = rabbits; 20 or 75-fold of the maximal recommended human dosage
[2] = not given; remark: listed apart in the source

Structure (SMILES)	foetal growth (late pregnancy, at this dose (20 or 75-fold of human dosage), species not stated in the sentence (rats or rabbits) [26])	effect on the implantation or embryogenesis (rats)	teratogenic effect (rats, 20 or 75-fold of the maximal recommended human dosage)	teratogenic effect [1]	incidence of elevated transaminases ([2]; controlled clinical studies, compared to the placebo group [19])	incidence of elevated transaminases ([2]; human, in vivo)
CN(CCOc1ccc(CC2SC(=O)NC2=O)cc1)c1ccccn1 (stereo not shown) [rosiglitazone]	can slow down the foetal growth	no effect	no teratogenic effect	no teratogenic effect	similar	–
Cc1c(C)c2c(c(C)c1O)CCC(C)(COc1ccc(CC3SC(=O)NC3=O)cc1)O2 (stereo not shown) [troglitazone]	–	–	–	–	–	triplicated
CCc1ccc(CCOc2ccc(CC3SC(=O)NC3=O)cc2)nc1 (stereo not shown) [pioglitazone]	–	–	–	–	–	similar
